Series [1] deals with T1, OsD14 (Oryza sativa subsp. japonica, UniProt Q10QA5).
T1 construct: made in house; host or cells: E. coli BL21 (DE3)
T1 sequence (Q10QA5 1-318): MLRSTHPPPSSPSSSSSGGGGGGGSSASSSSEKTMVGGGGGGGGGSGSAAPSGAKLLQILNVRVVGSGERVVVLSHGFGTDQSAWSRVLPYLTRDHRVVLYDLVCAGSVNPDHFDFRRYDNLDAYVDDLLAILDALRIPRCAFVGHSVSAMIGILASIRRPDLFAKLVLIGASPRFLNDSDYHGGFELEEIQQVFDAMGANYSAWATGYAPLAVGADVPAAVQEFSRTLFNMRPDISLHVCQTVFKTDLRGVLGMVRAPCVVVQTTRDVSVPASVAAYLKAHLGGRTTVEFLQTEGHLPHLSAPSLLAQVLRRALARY
Description: In vitro hydrolysis assay with OsD14 (HPLC). The series is classed as biochemical, rice. Particulars: 10 μM substrate, 37° C. The text has this:
Striga hermonthica ShHTL7 cDNA, GenBank accession KR013127 was kindly provided by Prof. Tadao Asami (The University of Tokyo, Japan). Arabidopsis thaliana D14 (AtD14) cDNA, GenBank accession AY097402 was synthesized and cloned into pUC57 (GenScript). ShHTL7 and OsD14 cDNAs were amplified by RT-PCR using the primers shown in Table 2, digested with BamHI and XhoI, and ligated into BamHI/XhoI digested pGEX-6P-1 expression vector (GE Healthcare). Integrity of plasmids was confirmed by sequencing (KAUST Bioscience Core Lab). The plasmids were then transformed into E. coli BL21 (DE3) cells. The cells were grown in LB broth containing ampicillin ([…]), incubated at 37° C. until OD600 of 0.6 and induced with 0.1 mM isopropyl-β-D-thiogalactopyranoside (IPTG) at 16° C. for 16 h. […]
The hydrolysis of GR24 and MPs by ShHTL7/OsD14 was performed in a total volume of 0.5 ml of PBS buffer containing 10 μM of substrate. […] Hydrolysis of substrates was monitored by HPLC analysis using an Zorbax Eclipse Plus C18 column (3.5 μm, 2.1×150 mm), eluted by a gradient from 10% to 90% acetonitrile in water within 15 min and keeping final condition for 4 min. […] Eluted compounds were detected using a Diode Array Detector. Amounts of remaining substrates were determined by calculating corresponding peaks, in comparison to that of internal standard.

Series [2] deals with Striga. Description: Trial in Burkina Faso, wooden boxes with artificially infested soil and pearl millet host. In kind it is in vivo. The settings on record: 1×1 m^2 boxes, artificially infested soil, pearl millet host. On the procedure:
Very recently, the activity of MP1 was also evaluated in a trial conducted in Burkina Faso, in which 1×1 m^2 wooden boxes were used which were filled with artificially infested soil and pearl millet as a host.

Series [3] concerns rice seedlings (Shiokari, d3, d10). Description: Growth and fresh biomass of hydroponically grown rice seedlings. Particulars: 2.5 μM, twice a week for three weeks. In kind it is in vivo. The procedure: Rice seeds (WT, d3, d10) were surface-sterilized by washing with 70% ethanol for 1 min and then with 2.5% sodium hypochlorite for 15 min. Seeds were then rinsed thoroughly with sterile MilliQ water and incubated in water for 2 days at 30° C. in the dark. Pre-germinated seeds were transferred to filter papers containing ½ strength MS medium in 90 mm petri dishes and incubated at 30° C. under fluorescent white light (130-180 μM m^−2 s^−1) for one week. Seven day-old seedlings were transferred to 50 ml falcon tubes (one seedling per tube) containing modified half-strength Hoagland nutrient solution and grown in greenhouse. Plants were treated with MPs at 2.5 μM-2.5×10-7 μM, using GR24 as positive control. The compounds were applied six times, twice a week. Number of tillers per plant, plant height and fresh biomass were measured at final harvest.

In series [4] the test system is rice leaf segments. Description: Dark-induced leaf senescence of rice leaf segments. In kind it is in vivo, O. sativa, var. Shiokari. On the procedure: One week old rice (O. sativa, var. Shiokari) seedlings were established as mentioned above. Uniform seedlings were transferred to 50 ml tubes containing half strength Hoaglands nutrient solution for 7 days and grown in an incubator under white fluorescent light (130-180 μM m^−2 s^−1) with 16 h:8 h (L/D) at 28° C. for one week. Leaf segments of 2 cm were cut from middle part of third leaves of rice plants. Each segment was put in a well (in 24-well plates) containing 2 ml of 2.5 mM MES buffer with 0.05% Tween-20, and incubated at 30° C. in the dark for 7 days. After application of MPs, color change, chlorophyll content, ion leakage and gene expression were monitored daily for 7 days.

The test system of series [5] is Arabidopsis seedlings. The series can be described thus: Arabidopsis hypocotyl elongation assay. In kind it is in vivo. Particulars: 1.0 μM. The procedure: Sterilized Arabidopsis seeds were sown on half strength MS (with 0.5% sucrose+1% agar, 0.5 g L-1 MES, pH 5.7) plates supplemented with MPs or GR24 (at 1.0 μM). Plates were stored at 4° C. in darkness for 3 days. To initiate germination, plates were exposed to continuous white light for 24 h then transferred to continuous monochromatic red light (160 Lux, 22° C.) conditions for another 4 days. For hypocotyl length measurement, at least 30 seedlings were measured using the publically available ImageJ software (http://rsbweb.nih.gov/ij/) after taking digital photographs. Monochromatic red light source was applied as described previously (Wu and Yang, 2010). Light flow rates were measured using a Li250 quantum photometer (Li-Cor, Lincoln, NE, USA).

SMILES strings stand for the structures. Entries after “also recorded” stand apart in the source; their conditions may differ.

Turning to `COC(=O)/C(=C/OC1C=C(C)C(=O)O1)c1ccc([N+](=O)[O-])cc1` (racemic) [MP1, (E)-methyl 3-(4-methyl-5-oxo-2,5-dihydrofuran-2-yloxy)-2-(4-nitrophenyl)acrylate], the “Hydrolysis rate by OsD14” value in series [1] was “highest hydrolysis rate”. Moreover, in series [2], the “Germination activity compared with GR24” value was “significantly higher germination activity than GR24”.

Consider `COC(=O)/C(=C/OC1C=C(C)C(=O)O1)c1ccccc1` (racemic) [MP3, (E)-methyl 3-(4-methyl-5-oxo-2,5-dihydrofuran-2-yloxy)-2-phenylacrylate], for which, in series [3], the “Growth, senescence symptoms and biomass of rice seedlings” value is “stunted the growth and caused senescence symptoms; also recorded: growth retardation and senescence”. Besides, the “Transcript levels of Senescence Associated Genes Osl20 and Osl295” value in series [4] (after 5 days of treatment) was “more pronounced in MP3 treated samples”. The “Change in leaf color, time relative to control” value in series [4] (dark, leaf segments) is recorded as “about two days earlier than the control”. In addition, the “Change in leaf color, day observed” value in series [4] (dark, leaf segments monitored 7 days) is “already on the third day after treatment”. In addition, the “Ion leakage compared to the control” value in series [4] (first five days) is listed as “did not detect a difference”; in series [4] (sixth and seventh day), “striking increase”. In addition, the Chlorophyll content entry in series [4] (third day) was “clear reduction”. Further, the “Hydrolysis rate by OsD14” value in series [1] is on record as “finally MP3”.

`COC(=O)/C(=C/OC1C=C(C)C(=O)O1)c1ccc(Cl)cc1` (centres unmarked) [MP7]: in series [5], the “Inhibition of hypocotyl growth” value was “stronger inhibitory effect than GR24”.

Values taken from patent publication US11903386B2, “Strigolactone analogs and their usage in plant control” (King Abdullah University of Science and Technology, priority 2016, dated 2024).
